Assay results: patent publication US8440638B2, “Compositions and methods for modulating calcium flux, glucose homeostasis and apoptosis” (Wisconsin Alumni Research Foundation, priority 2004, dated 2013)
Blank lines part the entries; values can stand above or below the compound they belong to.

Experiments:
CRI-G1 cells = assay: Cell viability assay (calcein fluorescence), CRI-G1 cells; type: cell-based, rat; settings: 0.5-20 mM nicotinamide, 20 μM puromycin, 16 h
Method: FIG. 4 a) OAADPr gates the endogenous TRPM2 channel in CRI-G1 cells. Left panel: Evolution of currents in CRI-G1 cells in the absence (grey squares) or presence (black circles) of OAADPr (120-250 μM). Shown are average leak subtracted currents from n=3 cells for each condition. Right panel: Representative leak subtracted whole cell I/V curves for peak currents observed in the absence (grey line) and presence (black line) of OAADPr. For the above measurements, CRI-G1 cells were maintained in the whole cell patch clamp configuration as previously described for HEK-293 cells (44). b) Puromycin leads to cell death in CRI-G1 cells. CRI-G1 cells were treated with 0-40 μM puromycin for 16 h. Cell viability was assessed by measuring fluorescence of calcein in live cells. Data obtained from 4 independent experiments were plotted as a percent change in fluorescence compared to those of untreated cells set at a 100%. Error bars indicate the standard deviation from the mean. (Inset) Nicotinamide rescues puromycin-induced death in CRI-G1 cells. […] Cell viability was assessed 16 h later as described above. […] Calcein is retained in living, but not dead cells, where it undergoes catalytic conversion into a fluorescent compound Fluorescence in each well was measured in a microplate reader using excitation and emission filters at 485/530 nm, respectively.

Sir2 homologs = assay: NAD+-dependent histone deacetylase activity of HEK-293 protein extracts; type: biochemical; settings: data not shown
[1] = test system: TRPM2-expressing HEK-293 cells; assay: Cell viability assay (calcein fluorescence), tet-inducible TRPM2 HEK-293 cells; type: cell-based
Method: Shown are HEK-293 cells (closed diamond) and HEK-293 cells stably transfected with a tet-controlled TRPM2 construct in the presence (open squares) or absence of (open diamonds) tetracycline. […] TRPM2-expressing HEK-293 cells were grown in complete DMEM media and 1 μg/ml tetracycline until 80-90% confluent. One set of cells were re-fed with the same complete media (closed diamonds) and the other set of cells were rinsed with PBS and fed with modified media containing 1 μg/ml tetracycline, 5 mM EGTA and without calcium chloride (open squares). […] HEK-293 (close diamond) and TRPM2 expressing HEK-293 cells in the absence (open diamond) or presence of (closed square) tetracycline were exposed to 0-10 μg/ml cycloheximide for 16 h. Cell viability was determined as described in (a).
TRPM2-expressing HEK-293 cells were exposed to 0-50 μM puromycin for 16 h in the presence (open diamond) or absence (closed diamond) of 500 μM nicotinamide. […] TRPM2-expressing HEK-293 cells were exposed to 0-50 μM puromycin for 16 h in the presence (open diamond) or absence (closed diamond) of 1.5 mM 3-aminobenzamide. Cell survival was determined as described in (a).
HEK-293 and tetracycline (tet)-inducible HEK-293 TRPM2-expressing cells (23) were cultured in DMEM and 10% FBS at 37° C., 5% CO2. Media used to culture tet-inducible HEK-293 cells was supplemented with blasticidin (5 μg ml^−1; Invitrogen) and zeocin (0.4 mg/ml; Invitrogen). To induce expression of TRPM2 in recombinant HEK-293 cells, tetracycline was added to the media at 1 μg ml^−1 (Invitrogen) 24 h prior to experiments. The CRI-G1 rat β-islet tumor cell line was obtained from EACC and cultured in DMEM, 10% FBS and 2 mM glutamine.
HEK-293, tet-inducible HEK-293, and CRI-G1 cells were seeded into 6 well plates at a density of 500,000 cells per well. When cells were 50-70% confluent, puromycin was added to the media at various concentrations for 16 hours. Cell monolayers were rinsed with PBS, after which 0.5 ml of 2 μM calcein in PBS was added directly to the well for 10-20 minutes. Calcein is retained in living, but not dead cells, where it undergoes catalytic conversion into a fluorescent compound Fluorescence in each well was measured in a microplate reader using excitation and emission filters at 485/530 nm, respectively.

[2] = test system: insulin-producing β-cells; settings: prophylactic treatment; alloxan and streptozotocin models (ref. 48); cited from earlier work
endogenous TRPM2 channel = molecular target: T1, endogenous TRPM2 channel (Rattus norvegicus, UniProt E9PTA2); assay: Whole cell patch clamp, endogenous TRPM2 channel in CRI-G1 cells; type: cell-based; settings: OAADPr 120-250 μM in patch pipette, n=3 cells
T1 construct: direct OAADPr-mediated gating of endogenous TRPM2 channels in CRI-G1 cells; endogenous in cells; host or cells: CRI-G1 rat beta-islet tumor cell line
T1 sequence (E9PTA2 whole entry): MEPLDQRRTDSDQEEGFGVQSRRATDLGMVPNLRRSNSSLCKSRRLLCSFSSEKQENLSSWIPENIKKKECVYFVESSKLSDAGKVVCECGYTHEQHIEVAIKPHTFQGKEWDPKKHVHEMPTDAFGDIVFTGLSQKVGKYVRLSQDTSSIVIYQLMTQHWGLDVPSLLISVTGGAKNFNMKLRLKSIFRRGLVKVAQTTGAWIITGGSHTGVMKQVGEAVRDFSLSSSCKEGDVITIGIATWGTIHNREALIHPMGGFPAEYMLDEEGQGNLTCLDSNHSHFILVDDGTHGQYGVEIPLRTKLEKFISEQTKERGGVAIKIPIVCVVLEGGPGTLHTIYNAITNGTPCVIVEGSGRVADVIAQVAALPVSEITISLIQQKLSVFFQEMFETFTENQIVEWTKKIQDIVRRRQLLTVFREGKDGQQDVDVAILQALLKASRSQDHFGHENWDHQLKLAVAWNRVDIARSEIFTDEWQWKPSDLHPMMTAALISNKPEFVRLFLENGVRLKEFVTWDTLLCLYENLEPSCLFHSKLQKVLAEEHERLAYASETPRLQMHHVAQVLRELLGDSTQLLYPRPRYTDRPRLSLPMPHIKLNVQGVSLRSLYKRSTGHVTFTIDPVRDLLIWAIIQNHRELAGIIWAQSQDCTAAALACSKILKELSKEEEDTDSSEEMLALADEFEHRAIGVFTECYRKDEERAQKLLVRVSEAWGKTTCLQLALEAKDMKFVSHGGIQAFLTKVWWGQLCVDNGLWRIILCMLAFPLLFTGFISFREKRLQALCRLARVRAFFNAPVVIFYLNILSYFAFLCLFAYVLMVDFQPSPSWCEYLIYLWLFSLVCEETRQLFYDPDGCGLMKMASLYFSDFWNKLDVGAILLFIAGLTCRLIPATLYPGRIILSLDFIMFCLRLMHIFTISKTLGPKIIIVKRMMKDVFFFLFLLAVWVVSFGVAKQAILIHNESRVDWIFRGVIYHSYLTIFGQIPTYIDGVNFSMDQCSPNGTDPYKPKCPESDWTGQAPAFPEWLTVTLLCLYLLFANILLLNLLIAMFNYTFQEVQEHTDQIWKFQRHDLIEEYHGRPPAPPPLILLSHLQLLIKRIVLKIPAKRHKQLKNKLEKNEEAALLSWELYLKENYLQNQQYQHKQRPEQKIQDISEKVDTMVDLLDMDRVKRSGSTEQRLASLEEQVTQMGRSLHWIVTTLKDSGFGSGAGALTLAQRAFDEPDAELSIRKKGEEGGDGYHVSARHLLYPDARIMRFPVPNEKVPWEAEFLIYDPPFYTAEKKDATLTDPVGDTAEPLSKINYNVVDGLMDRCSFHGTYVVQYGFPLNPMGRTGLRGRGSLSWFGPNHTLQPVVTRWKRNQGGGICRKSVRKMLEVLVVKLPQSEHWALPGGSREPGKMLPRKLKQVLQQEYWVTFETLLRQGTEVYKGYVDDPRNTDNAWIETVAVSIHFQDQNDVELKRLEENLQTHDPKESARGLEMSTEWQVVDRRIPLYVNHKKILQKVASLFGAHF
Method: FIG. 4 a) OAADPr gates the endogenous TRPM2 channel in CRI-G1 cells. Left panel: Evolution of currents in CRI-G1 cells in the absence (grey squares) or presence (black circles) of OAADPr (120-250 μM). Shown are average leak subtracted currents from n=3 cells for each condition. Right panel: Representative leak subtracted whole cell I/V curves for peak currents observed in the absence (grey line) and presence (black line) of OAADPr. For the above measurements, CRI-G1 cells were maintained in the whole cell patch clamp configuration as previously described for HEK-293 cells (44). b) Puromycin leads to cell death in CRI-G1 cells. CRI-G1 cells were treated with 0-40 μM puromycin for 16 h. Cell viability was assessed by measuring fluorescence of calcein in live cells. Data obtained from 4 independent experiments were plotted as a percent change in fluorescence compared to those of untreated cells set at a 100%. Error bars indicate the standard deviation from the mean. […] Cell viability was assessed 16 h later as described above. […]
Patch clamp electrophysiology was performed as previously described (23). […] Currents were recorded on an EPC9 patch clamp amplifier with automatic capacitance compensation using a protocol generating a 50 msec voltage ramp from −100 to +100 mv every two seconds at a holding potential of 0 mv (appropriately corrected for liquid junction potential). […]

[3] = Spontaneous breakdown of OAADPr in the patch pipette; type: physicochemical; settings: multiple experiments
Method: (§1) Patch clamp electrophysiology was performed as previously described (23). Briefly, cells were patch clamped in the whole cell configuration at 25° C. using pipettes with resistances ranging from 2-3 MOhms. Currents were recorded on an EPC9 patch clamp amplifier with automatic capacitance compensation using a protocol generating a 50 msec voltage ramp from −100 to +100 mv every two seconds at a holding potential of 0 mv (appropriately corrected for liquid junction potential). Bath solution included 150 mM NaCl, 2.8 mM KCl, 5 mM CsCl, 1 mM CaCl2, 2 mM MgCl2, and 10 mM Hepes (pH 7.2). Pipette solution included 135 mM CsGlutamate, 1 mM MgCl2, 8 mM NaCl, 10 mM Hepes (pH 7.2), and 10 mM EGTA. For low-resolution presentation of current development over the course of the experiment, instantaneous currents at −80 mv were extracted from each ramp and plotted versus time.

TRPM2 channel = molecular target: T2, TRPM2 channel (Homo sapiens, UniProt O94759); assay: Whole cell patch clamp, TRPM2 channel gating in tet-induced TRPM2-expressing HEK-293 cells; type: cell-based; settings: OAADPr in patch pipette solution; similar kinetics and dose dependence to ADP-ribose
T2 construct: expressed in transfected cells; host or cells: tetracycline-inducible HEK-293
T2 sequence (O94759 whole entry): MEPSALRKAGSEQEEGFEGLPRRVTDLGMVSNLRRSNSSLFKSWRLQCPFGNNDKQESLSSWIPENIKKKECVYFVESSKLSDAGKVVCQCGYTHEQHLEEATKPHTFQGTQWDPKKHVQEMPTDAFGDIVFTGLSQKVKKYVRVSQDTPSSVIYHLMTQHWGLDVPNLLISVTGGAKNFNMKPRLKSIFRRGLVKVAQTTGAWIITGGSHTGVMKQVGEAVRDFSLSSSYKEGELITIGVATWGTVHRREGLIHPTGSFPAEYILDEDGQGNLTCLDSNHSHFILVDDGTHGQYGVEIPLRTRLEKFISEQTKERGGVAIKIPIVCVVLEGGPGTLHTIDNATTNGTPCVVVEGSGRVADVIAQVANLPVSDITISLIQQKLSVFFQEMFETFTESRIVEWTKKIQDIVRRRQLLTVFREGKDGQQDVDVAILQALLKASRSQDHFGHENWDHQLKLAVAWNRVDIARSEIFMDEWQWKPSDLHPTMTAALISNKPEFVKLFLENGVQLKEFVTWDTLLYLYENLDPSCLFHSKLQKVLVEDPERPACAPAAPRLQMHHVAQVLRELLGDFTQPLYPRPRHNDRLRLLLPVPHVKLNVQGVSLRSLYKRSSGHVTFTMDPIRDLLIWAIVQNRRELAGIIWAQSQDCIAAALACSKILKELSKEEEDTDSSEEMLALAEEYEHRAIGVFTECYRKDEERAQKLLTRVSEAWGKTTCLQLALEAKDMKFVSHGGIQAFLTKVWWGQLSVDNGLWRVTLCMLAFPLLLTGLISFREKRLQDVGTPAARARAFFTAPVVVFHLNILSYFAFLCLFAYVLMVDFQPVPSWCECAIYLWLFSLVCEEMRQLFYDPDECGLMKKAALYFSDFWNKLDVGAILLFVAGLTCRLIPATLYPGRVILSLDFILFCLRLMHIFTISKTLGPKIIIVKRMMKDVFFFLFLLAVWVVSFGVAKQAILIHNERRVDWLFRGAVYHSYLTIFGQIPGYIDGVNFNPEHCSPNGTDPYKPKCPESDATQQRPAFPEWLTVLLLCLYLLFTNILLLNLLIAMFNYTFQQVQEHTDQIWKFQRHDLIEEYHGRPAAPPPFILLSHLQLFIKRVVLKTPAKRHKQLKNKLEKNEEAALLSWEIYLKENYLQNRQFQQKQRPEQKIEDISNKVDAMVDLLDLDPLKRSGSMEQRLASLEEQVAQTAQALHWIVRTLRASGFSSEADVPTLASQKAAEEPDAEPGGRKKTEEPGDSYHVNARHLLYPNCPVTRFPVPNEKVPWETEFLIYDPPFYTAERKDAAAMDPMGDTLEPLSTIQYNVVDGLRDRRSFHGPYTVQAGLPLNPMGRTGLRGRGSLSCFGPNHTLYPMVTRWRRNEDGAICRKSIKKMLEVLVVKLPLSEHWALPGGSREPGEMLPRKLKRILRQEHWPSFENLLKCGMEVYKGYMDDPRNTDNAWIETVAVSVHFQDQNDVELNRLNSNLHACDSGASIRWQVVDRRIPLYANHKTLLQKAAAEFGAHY
Method: Shown is the development of whole cell currents over time in TRPM2-expressing HEK-293 cells. Bath solution was standard ringer's, and pipette solution was Cs-based and included 10 mM EGTA to buffer intracellular Ca^2+ to 10 nM. The patch pipette contained various concentrations of (FIG. 1a) ADPr, (FIG. 1b) OAADPr (FIG. 1c) OAADPr and puromycin as indicated in the figure. FIG. 1d.) Cytoplasmic OAADPr esterase activity is inhibited by puromycin. 200 μM O-[^3H]AADPr and 0-100 μM puromycin were added to cytoplasmic HEK-293 extract for 30 min. Percent hydrolysis of O-[^3H]AADPr to [^3H]acetate was measured as described hereinbelow. FIG. 1e.) Nuclear OAADPr acetyltransferase activity is not inhibited by puromycin. HEK-293 nuclear extract was incubated with 200 μM O-[^3H]AADPr in the presence or absence of 100 μM puromycin for 60 min. The reactions were quenched and resolved by HPLC. The radioactivity in collected fractions was determined by liquid scintillation counting. FIGS. 1f-g.) In vivo detection of OAADPr. Mass spectrum of HEK-293 generated OAADPr (peak m/z of 602.0894; the theoretical m/z for OAADPr is 602.0895) after puromycin treatment, with authentic [^13C]-OAADPr (peak m/z of 603.0851 and isotopic distribution of 604.0878 and 605.0928) as a standard. Peak 599.3691 is from the matrix.
as §1, with “For low-resolution presentation of current development over the course of the experiment, instantaneous currents at −80 mv were extracted from each ramp and plotted versus time.” left out

NAD+-dependent histone deacetylase activity of protein extracts (Sir2 homologs): inhibited
Compound: NC(=O)c1cccnc1 [nicotinamide]
effect on puromycin-induced death of CRI-G1 cells (CRI-G1 cells): blocked | protection from puromycin-induced cell death at high puromycin ([1]; 500 μM nicotinamide, 50 μM puromycin): suppressed | protection from puromycin-induced cell death ([1]; 500 μM nicotinamide, up to 20 μM puromycin, 16 h): completely protect | development of diabetes [2]: suppress the development of diabetes

Compound: C[C@@H]1C[C@@H]([C@H](O)CC2CC(=O)NC(=O)C2)C(=O)[C@@H](C)C1 [cycloheximide]
sensitivity of TRPM2 expressing cells to cycloheximide vs cells not over-expressing the channel ([1]; 0-10 μg/ml cycloheximide, 16 h): no significant increased sensitivity

Compound: NC(=O)c1cccc(N)c1 [3-aminobenzamide]
effect on puromycin-induced cell death ([1]; 1.5 mM 3-aminobenzamide, 0-50 μM puromycin, 16 h): no effect

average currents induced (endogenous TRPM2 channel): ~2 nA | spontaneous breakdown of OAADPr to ADPr in the patch pipette [3]: 5-10% | TRPM2 gating in whole cell recordings (TRPM2 channel): induces TRPM2 gating
Compound: O-acetyl-ADP ribose [OAADPr]
